# Data taken from EP0559845B1, “Use of compounds in preventing endotoxin shock” (priority 1991, dated 1992).
# Key:
# sheep [1] = settings: 40-1000 µg/kg; reported in the literature; cited from earlier work
# [2] = tested on: FCS-enhanced GTPase activity; test: Inhibition of FCS-enhanced (non-LPS-stimulated) GTPase activity in macrophage membranes; format: biochemical; settings: 3 mg/ml lipid X; 10% FCS
# Description: With respect to non-LPS-stimulated GTPase activity in this macrophage system, we observed that 10% FCS (<0.1 ng endotoxin/ml serum by the Limulus amebocyte lysate method) induced a large degree of GTPase activation, whereas 3 mg/ml lipid X inhibited the FCS-enhanced GTPase activity by ∼ 50%.
# [3] = tested on: GTPase activity in membranes isolated from a macrophage (RAW 264.7) cell line; test: GTPase assay, basal activity and single agonists; format: biochemical
# Excerpt: (§1) We sought to directly evaluate the influence of LPS on possible G-protein function by examining agonist-enhanced GTPase activity, which is a hallmark of G-protein action. Moreover, because macrophages are one of the key cell types in the release of toxic mediators following an LPS challenge, we first assessed the capacity of LPS to influence GTPase activity in membranes isolated from RAW 264.7 cells, which is a highly LPS-responsive macrophage cell line. In these studies, GTPase activity was measured using a standard assay. The activity was determined using 2 µM γ-^32P-GTP in the presence of 0.1 mM ATP and 0.2 mM of the non-hydrolyzable ATP analog, AMPPNP, in order to minimize nonspecific nucleotidase activity in the membrane preparations. In the preferred practice of the present invention, the ability of a candidate compound to inhibit LPS-induced GTPase is assessed by measuring the release of ^32Pi from γ-^32P-GTP.
# (§2) We first determined the optimal LPS concentration for GTPase stimulation. In all experiments, the LPS dose response curve was quite steep, and with the highest activity occurring around 200-300 µg LPS/ml.
# (§3) Under these conditions, GTPase activation was evident at 100 µg LPS/ml (roughly 6 µM assuming an average MW ∼ 17,000 kDa), and the maximal effect was seen by 300 µg/ml LPS. (2) To show adenosine mucleotide synergism with LPS-stimulated GTPase activity, either 10µM ATP or 30µM ADP replace the 0.1 mM ATP and 0.2 mM AMPPNP of the standard assay described by Cassel et al. and Neer et al.
# Because the above inhibitor studies indicated a maximum LPS-stimulated GTPase activity in the presence of ATP and ATP analogs, we investigated this interaction by measuring the ATP-dependence of the GTPase activity in macrophage membranes in the presence and absence of an optimal dose of LPS. […] This stimulation by ATP may be due to the action of purinergic receptors, i.e., the adenosine and ATP receptors which are well-characterized to be coupled to various G-proteins.
# (§4) To assess whether the LPS/ATP-enhanced GTPase is a "low Km" form, which would be expected for a variety of large and small MW G-proteins, as well as for various GAP and ARF-like proteins, as opposed to a "high Km" form, such as a phosphatase, we assayed the GTPase activity using 0.2 and 50 µM GTP essentially as described previously. […] The LPS and ATP stimulated a low Km GTPase activity by ∼30% and 70%, respectively, when added individually. This stimulation of low Km activity was slightly greater than that estimated using the standard assay conditions. […] The LPS stimulation of GTPase activity is enhanced by adenine nucleotides.
# [4] = tested on: GTPase activity in membranes isolated from a macrophage (RAW 264.7) cell line; test: GTPase assay: basal or agonist-stimulated GTPase activity in macrophage membranes; format: biochemical; settings: no LPS
# Excerpt: as §1, §2, §3
# In the preferred assay, a candidate compound (.001 - 1000 µM) is dissolved or suspended in 100µl of a reaction buffer containing 20mM HEPES (pH 7.4), 0.01mM ATP or ADP, membranes isolated from RAW 264.7 cells, 2µM γ-^32P-GTP (3-9 X 10cpm/pmol), 5mM MgCl2, 18µM LPS (based on an estimated MW of 17,000 kDa for E. coli 0111:B4 endotoxin), and 250 mM ammonium sulfate. The reaction is initiated by the addition of the γ-^32P-GTP and the mixture incubated at 30-37°C for 15 to 30 minutes. The reaction is terminated by the addition of 500µl of 5% trichloroacetic acid and 500µl of 0.1gm/ml acid-activated charcoal in 5% trichloroacetic acid. The samples are centrifuged at 14,000xg for 10 minutes, and a 550µl aliquot of the supernatant is removed for scintillation counting. The supernatant will contain the released ^32Pi. The extent of GTPase inhibition is measured by the decrease in the amount of ^32Pi released from γ-^32P-GTP. Appropriate controls include mixtures with one of the following omitted: (i) test compound, (ii) endotoxin, and (iii) ATP, ADP or AMPPNP.
# The macrophage-like cell line RAW 264.7 is cultured as described using RPMI 1640 medium supplemented with 10% fetal calf serum (FCS) containing < 0.1 ng/ml LPS. The membranes are resuspended in 20 mM HEPES (pH 7.4), 1 mM dithiothreitol, 1 mM EDTA and 10 µg leupeptin/ml. Aliquots are stored at -70°C until assayed.
# as §4
# sheep [5] = test: Protection of sheep against the lethal effects of intravenous lipopolysaccharide; format: in vivo
# Description: Mixed breed sheep weighing 30-70 kg were obtained from the University of Wisconsin Experimental Farms. Sheep were prepared as follows: at least 24 hours before each experiment, catheters were percutaneously placed in the pulmonary artery. Any other catheterizations that were required for infusion were done at this time. All studies were performed on awake, unrestrained sheep placed in portable stanchions with food and water ad libitum. Electronically calculated pulmonary artery pressures as well as heart rates were recorded at various intervals on a polygraph. To ensure a stable baseline prior to the injection of test compounds, approximately 1 hour of baseline measurements were recorded.
# In view of the partial protection afforded by lipid X against LPS-induced lethality in mice, the possibility of such protection was also examined in sheep. The sheep system has the important advantage of permitting the administration of much larger doses of lipid X relative to LPS. It is the ratio of lipid X to endotoxin that is critical for survival. […] It is evident that a 5-10 fold excess of lipid X (on a weight basis) over LPS is required to ensure survival. (Because of the inherent LPS resistance of mice, their small body volume, and the limited solubility of lipid X in water, it is impossible to achieve 5-10 fold excess of lipid X relative to LPS in the mouse system.)
smiles,measurement,setting,value
CCCCCCCCCCC[C@@H](O)CC(=O)N[C@H]1[C@@H](OP(=O)(O)O)O[C@H](CO)[C@@H](O)[C@@H]1OC(=O)C[C@H](O)CCCCCCCCCCC [lipid X],illness after lipid X by itself,sheep [1],does not create marked illness or fever
same,inhibition of FCS-enhanced GTPase activity,[2],~50%
same,effect on basal GTPase activity,[3],slightly reducing
same,effect on basal GTPase activity,[4],slightly reducing basal activity
same,survival of subsequent LPS challenge,sheep [5]; 100-200 µg/kg of lipid X during the pretreatment period,survived
same,Survivors,"sheep [5]; Lipid X 50 µg/kg 1 hour prior to endotoxin, Lipopolysaccharide 20 µg/kg",1/2
same,Survivors,"sheep [5]; Lipid X 100 µg/kg 15 min. prior to endotoxin, Lipopolysaccharide 10 µg/kg",3/3
same,Survivors,"sheep [5]; Lipid X 100 µg/kg 1 hour prior to endotoxin, Lipopolysaccharide 20 µg/kg",4/4
same,Survivors,"sheep [5]; Lipid X 200 µg/kg 1 hour prior to endotoxin, Lipopolysaccharide 20 µg/kg",3/3
same,excess of lipid X over LPS required to ensure survival,sheep [5]; in vivo,5-10 fold excess (on a weight basis
same,effect on pulmonary hypertension or fever induced by LPS,sheep [5]; pretreatment with lipid X,does not completely prevent
same,"effect on serious clinical symptoms (shortness of breath, weakness, diarrhea)",sheep [5]; pretreatment with lipid X,alleviates some of the serious clinical symptoms
